Patent US20100047231A1, “Immuno-Stimulant Combination for Prophylaxis and Treatment of Hepatitis C” (priority 2005, published 2010)

Columns and labels:
Type in all cases: in vivo
HHD mice [1] = test: IFN-γ production (ELISA) by splenocytes from immunised HHD mice stimulated with peptides or NS3; settings: 100 μg NS3 + poly(I:C) + anti-CD40, two immunisations, sixty days after the second
Procedure: (§1) Groups of two mice were immunised via the i.p. route with 50 μg of anti-CD40. Four hours later, they were injected with 50 μg of poly(I:C) (i.v.) and different amounts of the antigens: NS3 protein or mixtures of NS3 with peptides (i.p.).
Splenic cells were resuspended in complete medium and plated at 8×10^5 cells/well in 0.2 ml on 96-well plates with U-shaped bottom, in the absence or presence of peptides or of the recombinant NS3 protein of the HCV.
Two days afterwards, the supernatants were collected for measuring the presence of IFN-γ by means of ELISA (BD-Pharmingen), following the manufacturer's instructions.

HHD mice [2] = test: Lythic activity of CTL (chromium release) of splenocytes from immunised HHD mice against peptide-loaded T2 target cells; settings: 100 μg NS3 + poly(I:C) + anti-CD40, two immunisations, sixty days after the second (FIG. 5B)
Procedure: as §1
(§2) In order to measure the CTL responses, the splenocytes coming from the immunised animals were incubated with peptides (10 μM) for 2 h at 37° C., washed twice and cultured on 24-well plates with a confluence of 7.5×10^6 cells/well. In experiments conducted for measuring the recognition of T1/HCVcon cells, 7.5×10^6 splenocytes of HHD mice were cultured with 7.5×10^5 T1/HCVcon cells previously treated with Mitomycin C (Sigma). In all cases, two days later, 2.5 U/ml of IL-2 (Boehringer-Mannheim GmbH, Germany) was added to the wells and 5 days later the cells were recovered in order to carry out chromium release assays.
(§3) The lythic activity was measured by incubating different quantities of effector cells for 4 h with 3000 T2 target cells previously loaded with 51Cr, with and without peptide (target). […]
(§4) The specific lysis percentage was calculated according to the formula: […]
(§5) where the spontaneous lysis (measured as cpmspontaneous) corresponds to target cells incubated in the absence of effector cells, and the maximum lysis (cpmmaximum) is obtained by incubating target cells with 5% Tritonx100.

T1/HCVcon cells = test: Lythic activity of splenocytes from immunised HHD mice against T1/HCVcon cells (chromium release); settings: 100 μg NS3 + poly(I:C) + anti-CD40, six days after immunisation, splenocytes stimulated five days with T1/HCVcon cells and IL-2 (FIG. 4)
Procedure: as §1, §2, §3, §4, §5

NS3 protein (SEQ. ID. NO: 2): Recombinant polypeptide with 635-amino-acid complete HCV NS3 sequence and His tail, expressed in E. coli; given with poly(I:C) and anti-CD40
Lasting CD4+ response, IFN-γ production on stimulation with NS3 protein (HHD mice [1]; NS3 1 μg/ml, 48 h (FIG. 5C)): potent and lasting CD4+ responses | Lasting CD8+ response, production of IFN-γ on stimulation with peptide 1073 (HHD mice [1]; peptide 1073 10 μM, 48 h (FIG. 5A)): capable of producing large amounts of IFN-γ | Lasting CD8+ response, lythic activity against target cells loaded with peptide 1073 (HHD mice [2]): capable of lysing target cells pulsed with the peptide 1073 | Lysis of T1/HCVcon cells versus T1 control cells (T1/HCVcon cells): greater capacity to lyse T1 cells, which expressed proteins of the HCV
